Values quoted from earlier work in patent publication US20100216762A1, “Agonists and Antagonists of the S1P5 Receptor, and Methods of Use Thereof” (ABBOTT LABORATORIES, priority 2009, published 2010).

Experiments:
[1] = spared-nerve injury model of neuropathic pain

Row | Compound | Aβ-induced migration of monocytes to sites of injury (monocytes) | nociceptive behavior in the spared-nerve injury model [1] | nociception in the formalin model
1 | CCCCCCCCc1ccc(CCC(N)(CO)CO)cc1 [FTY720] | inhibits that migration | reduced nociceptive behavior | anti-nociceptive
2 | FC(F)(F)c1cccc(-c2noc(-c3cc(-c4ccccc4)c(C(F)(F)F)s3)n2)c1 [SEW2871] |  |  | lack of activity
